Some results are limits rather than exact numbers.

human DGAT2 (hDGAT2), sequence (Q96PD7 whole entry): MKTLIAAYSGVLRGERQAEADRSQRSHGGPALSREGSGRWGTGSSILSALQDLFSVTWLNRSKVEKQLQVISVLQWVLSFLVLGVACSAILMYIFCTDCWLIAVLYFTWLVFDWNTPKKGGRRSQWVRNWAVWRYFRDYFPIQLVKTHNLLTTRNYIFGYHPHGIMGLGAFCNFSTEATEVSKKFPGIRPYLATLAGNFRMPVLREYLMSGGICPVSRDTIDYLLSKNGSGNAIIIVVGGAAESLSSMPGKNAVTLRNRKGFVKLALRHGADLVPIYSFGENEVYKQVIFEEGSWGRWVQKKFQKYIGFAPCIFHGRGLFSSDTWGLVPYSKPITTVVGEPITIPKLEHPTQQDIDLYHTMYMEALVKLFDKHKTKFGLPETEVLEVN

For the test, the target named is human DGAT2 (hDGAT2) (Homo sapiens (Human), UniProt Q96PD7). Description: DGAT2 Enzymatic Activity Assay. The test is classed as biochemical. The following applies: hDGAT2 Sf-9 membrane prep; 13C18-triolein product by LC/MS/MS; 25 μM diolein, 5 μM 13C oleoyl-CoA. The method, then:
Sf-9 insect cells were maintained in Grace's insect cell culture medium with 10% heated-inactivated fetal bovine serum, 1% Pluronic F-68 and 0.14 μg/ml Kanamycine sulfate at 27° C. in a shaker incubator. After infection with untagged baculovirus expressing human DGAT2 (hDGAT2) at multiplicity of infection (MOI) 3 for 48 hours, cells were harvested. Cell pellets were suspended in buffer containing 10 mM Tris-HCl pH 7.5, 1 mM EDTA, 250 mM sucrose and Complete Protease Inhibitor Cocktail (Sigma Aldrich), and sonicated on ice. Cell debris were removed by centrifugation at 2000×g for 15 minutes. Membrane fractions were isolated by ultracentrifugation (100,000×g), resuspended in the same buffer, and frozen (−80° C.) for later use. The protein concentration was determined with the Pierce™ BCA Protein Assay Kit (Thermo Fisher Scientific).
LC/MS/MS analyses were performed using Thermal Fisher's LX4-TSQ Vantage system. This system consists of an Agilent binary high-performance liquid chromatography (HPLC) pump and a TSQ Vantage triple quadrupole MS/MS instrument. For each sample, 2 μL samples from the top organic layer of in-plate liquid-liquid extraction were injected onto a Thermo Betabasic C4 column (2.1 mm×20 mm, 5 μm particle size). The samples were then eluted using the following conditions; mobile phase: Isopropanol: acetonitrile/10 mM ammonium formate=50/35/15 (v/v/v), flow rate: 0.8 mL/min, temperature: 25° C. Data was acquired in positive mode using a heated electrospray ionization (HESI) interface. […] The peak area was integrated by Xcalibur Quan software. The ratio between the ^13C18triolein generated in the reaction and spiked in internal standard ^13C21-triolein was used to generate percentage inhibition and IC50 values. Compound percentage inhibition was calculated by the following formula: Inhibition %=1−[(compound response−low control)/(high control−low control)]×100%.
DGAT2 activity was determined by measuring the amount of enzymatic product ^13C18-triolein (^13C-1,2,3-Tri(cis-9-octadecenoyl)glycerol) using the membrane prep mentioned above. The assay was carried out in ABgene 384-well assay plates in a final volume of 25 μL at rt.
By IC50 is commonly meant the concentration that inhibits the measured activity by half. `CC1(NC(=O)C2COc3c(-c4cccc(OC(F)F)c4)nn(-c4ccc(F)cn4)c3C2)CS(=O)(=O)C1` (racemic) [Example 119, 3-(3-(difluoromethoxy)phenyl)-1-(5-fluoropyridin-2-yl)-N-(3-methyl-1,1-dioxidothietan-3-yl)-1,5,6,7-tetrahydropyrano[3,2-c]pyrazole-6-carboxamide] yielded an IC50 of 0.33 nM.
Turning to `CC(C)n1nc(-c2cc(OC(F)F)ccc2F)c2c1CC(C(=O)NC1(C)CS(=O)(=O)C1)CO2` (racemic) [Example 121, 3-(5-(difluoromethoxy)-2-fluorophenyl)-1-isopropyl-N-(3-methyl-1,1-dioxidothietan-3-yl)-1,5,6,7-tetrahydropyrano[3,2-c]pyrazole-6-carboxamide], inhibition was half-maximal at 21.5 nM (IC50).
Next, `CC(C)n1nc(-c2cccc(OC(F)F)c2)c2c1CC(C(=O)NC1(C)CC(F)(F)C1)CO2` (racemic) [Example 124, N-(3,3-difluoro-1-methylcyclobutyl)-3-(3-(difluoromethoxy)phenyl)-1-isopropyl-1,5,6,7-tetrahydropyrano[3,2-c]pyrazole-6-carboxamide]: 56.4 nM; `CC(C)n1nc(-c2cccc(OC(F)F)c2)c2c1CC(C(=O)NC1(C)CS(=O)(=O)C1)OC2` (single isomer, unassigned) [EX-134a, 3-(3-(difluoromethoxy)phenyl)-1-isopropyl-N-(3-methyl-1,1-dioxidothietan-3-yl)-1,4,6,7-tetrahydropyrano[4,3-c]pyrazole-6-carboxamide]: more than 10000 nM; `CC(C)n1nc(-c2cccc(OC(F)F)c2)c2c1CC(C(=O)NC1(C)CS(=O)(=O)C1)OC2` (single isomer, unassigned) [EX-134b, 3-(3-(difluoromethoxy)phenyl)-1-isopropyl-N-(3-methyl-1,1-dioxidothietan-3-yl)-1,4,6,7-tetrahydropyrano[4,3-c]pyrazole-6-carboxamide]: 7610 nM.
With `C[C@]1(NC(=O)[C@H]2CCc3c(-c4ccccc4Cl)nn(-c4ccc(F)cc4)c3C2)CCS(=O)(=O)C1` (single isomer, unassigned) [Example 1a], it took 3900 nM to reach half-maximal inhibition (IC50).
For `C[C@]1(NC(=O)[C@@H]2CCc3c(-c4ccccc4Cl)nn(-c4ccc(F)cc4)c3C2)CCS(=O)(=O)C1` (single isomer, unassigned) [Example 1b] the value was 33.7 nM.
Next, `O=C(NC1(CO)CCC(F)(F)C1)[C@@H]1CCc2c(-c3cccc(OC(F)F)c3)nn(-c3ccc(F)cn3)c2C1` (single isomer, unassigned) [Example 8a]: 5 nM; `O=C(NC1(CO)CCC(F)(F)C1)[C@@H]1CCc2c(-c3cccc(OC(F)F)c3)nn(-c3ccc(F)cn3)c2C1` (single isomer, unassigned) [Example 8b]: 35 nM; `N#CC1(NC(=O)[C@@H]2CCc3c(-c4cncc(OC(F)F)c4)nn(-c4ccc(F)cn4)c3C2)CCOC1` (single isomer, unassigned) [Example 15a]: 17.4 nM.
Next, `N#CC1(NC(=O)[C@@H]2CCc3c(-c4cncc(OC(F)F)c4)nn(-c4ccc(F)cn4)c3C2)CCOC1` (single isomer, unassigned) [Example 15b]: 236 nM.
`CC(C(F)F)n1nc(-c2cc(OC(F)F)ccc2F)c2c1C[C@H](C(=O)NC1(C)CS(=O)(=O)C1)CC2` (single isomer, unassigned) [Example 48a] registered an IC50 of 90.3 nM.
For `CC(C(F)F)n1nc(-c2cc(OC(F)F)ccc2F)c2c1C[C@H](C(=O)NC1(C)CS(=O)(=O)C1)CC2` (single isomer, unassigned) [Example 48b] the value was 19.8 nM; for `CC(C(F)F)n1nc(-c2cc(OC(F)F)ccc2F)c2c1C[C@H](C(=O)NC1(C)CCS(=O)(=O)CC1)CC2` (single isomer, unassigned) [Example 49a], 32.1 nM.
For `CC(C(F)F)n1nc(-c2cc(OC(F)F)ccc2F)c2c1C[C@H](C(=O)NC1(C)CCS(=O)(=O)CC1)CC2` (single isomer, unassigned) [Example 49b] the value was 0.6 nM.
For `CCOc1cc(-c2nn(C(C)C(F)(F)F)c3c2CC[C@@H](C(=O)NC2(C)CCS(=O)(=O)CC2)C3)c(F)cn1` (single isomer, unassigned) [Example 53a] the value was 162 nM; for `CCOc1cc(-c2nn(C(C)C(F)(F)F)c3c2CC[C@@H](C(=O)NC2(C)CCS(=O)(=O)CC2)C3)c(F)cn1` (single isomer, unassigned) [Example 53b], 10.3 nM; for `CC(C1CC1)n1nc(-c2cc(OC(F)F)ccc2F)c2c1C[C@H](C(=O)NC1(C)CS(=O)(=O)C1)CC2` (single isomer, unassigned) [Example 58a], 23.4 nM.
Take `CC(C1CC1)n1nc(-c2cc(OC(F)F)ccc2F)c2c1C[C@H](C(=O)NC1(C)CS(=O)(=O)C1)CC2` (single isomer, unassigned) [Example 58b]: half-maximal inhibition (IC50) required 2.5 nM.
For the compound `CC(n1nc(-c2cc(OCC(F)(F)F)ncc2F)c2c1C[C@H](C(=O)NC1(C)CCS(=O)(=O)CC1)CC2)C(C)(C)O` (single isomer, unassigned) [Example 107a], the IC50 amounted to 3.9 nM.
For `CC(n1nc(-c2cc(OCC(F)(F)F)ncc2F)c2c1C[C@H](C(=O)NC1(C)CCS(=O)(=O)CC1)CC2)C(C)(C)O` (single isomer, unassigned) [Example 107b] the value was 5.4 nM; for `CCOc1cc(-c2nn(C(C)C(C)(C)O)c3c2CC[C@@H](C(=O)N[C@@]2(C)CCS(=O)(=O)C2)C3)c(F)cn1` (single isomer, unassigned) [Example 108a], 44.1 nM; for `CCOc1cc(-c2nn(C(C)C(C)(C)O)c3c2CC[C@@H](C(=O)N[C@@]2(C)CCS(=O)(=O)C2)C3)c(F)cn1` (single isomer, unassigned) [Example 108b], 172 nM.
For `CCOc1cc(-c2nn(C(C)C(C)(C)O)c3c2CC[C@@H](C(=O)NC2(C)CCS(=O)(=O)CC2)C3)c(F)cn1` (single isomer, unassigned) [Example 109a] the value was 49.5 nM; for `CCOc1cc(-c2nn(C(C)C(C)(C)O)c3c2CC[C@@H](C(=O)NC2(C)CCS(=O)(=O)CC2)C3)c(F)cn1` (single isomer, unassigned) [Example 109b], 30.7 nM.
In turn, `CC(n1nc(-c2cc(OC(F)F)ccc2F)c2c1C[C@H](C(=O)NC1(C)CS(=O)(=O)C1)CC2)C(C)(C)O` (single isomer, unassigned) [Example 110a] returned a half-inhibitory concentration (IC50) of 30.8 nM. The IC50 values of the last two compounds are within 1.5-fold of each other.
In the case of `CC(n1nc(-c2cc(OC(F)F)ccc2F)c2c1C[C@H](C(=O)NC1(C)CS(=O)(=O)C1)CC2)C(C)(C)O` (single isomer, unassigned) [Example 110b], the IC50 is 243 nM.
For `CC(n1nc(-c2cccc(OC(F)F)c2)c2c1C[C@H](C(=O)NC1(C)CCS(=O)(=O)CC1)CC2)C(C)(C)O` (single isomer, unassigned) [Example 111a] the value was 2070 nM.
Next, `CC(n1nc(-c2cccc(OC(F)F)c2)c2c1C[C@H](C(=O)NC1(C)CCS(=O)(=O)CC1)CC2)C(C)(C)O` (single isomer, unassigned) [Example 111b]: 230 nM; `CC(n1nc(-c2cc(OCC(F)(F)F)ncc2F)c2c1C[C@H](C(=O)N[C@@]1(C)CCS(=O)(=O)C1)CC2)C(C)(C)O` (single isomer, unassigned) [Example 112a]: 11.3 nM; `CC(n1nc(-c2cc(OCC(F)(F)F)ncc2F)c2c1C[C@H](C(=O)N[C@@]1(C)CCS(=O)(=O)C1)CC2)C(C)(C)O` (single isomer, unassigned) [Example 112b]: 31.6 nM.
Next, `CC(n1nc(-c2cc(OCC(F)(F)F)ncc2F)c2c1C[C@H](C(=O)NC1(C#N)CCS(=O)(=O)CC1)CC2)C(C)(C)O` (single isomer, unassigned) [Example 113a]: 27.8 nM; `CC(n1nc(-c2cc(OCC(F)(F)F)ncc2F)c2c1C[C@H](C(=O)NC1(C#N)CCS(=O)(=O)CC1)CC2)C(C)(C)O` (single isomer, unassigned) [Example 113b]: 70.3 nM.
The compound `CC1(NC(=O)[C@@H]2CCc3c(-c4cc(OC(F)F)ccc4F)nn(C4CCCC4O)c3C2)CS(=O)(=O)C1` (single isomer, unassigned) [Example 114a] gave a concentration for half-maximal inhibition (IC50) of 44.5 nM.
As to `CC1(NC(=O)[C@@H]2CCc3c(-c4cc(OC(F)F)ccc4F)nn(C4CCCC4O)c3C2)CS(=O)(=O)C1` (single isomer, unassigned) [Example 114b], half-maximal inhibition (IC50) required 129 nM.
For `CC1(NC(=O)[C@@H]2CCc3c(-c4cc(OC(F)F)ccc4F)nn(C4CCCC4O)c3C2)CS(=O)(=O)C1` (single isomer, unassigned) [Example 114c], half-maximal inhibition (IC50) required 99.9 nM.
For `CC1(NC(=O)[C@@H]2CCc3c(-c4cc(OC(F)F)ccc4F)nn(C4CCCC4O)c3C2)CS(=O)(=O)C1` (single isomer, unassigned) [Example 114d] the value was 105 nM.

Values taken from patent publication US20240140938A1, “PREPARATION OF TETRAHYDROINDAZOLE DERIVATIVES AS NOVEL DIACYLGLYCERIDE O-ACYLTRANSFERASE 2 INHIBITORS” (MERCK SHARP & DOHME LLC, priority 2020, published 2024).
